Experimental data: ChEMBL document CHEMBL1909046, “DrugMatrix in vitro pharmacology data”

What was measured:
[1] = target: Sodium-dependent dopamine transporter (Homo sapiens, UniProt Q01959); experiment: DRUGMATRIX: Dopamine Transporter radioligand binding (ligand: [125I] RTI-55); type: cell membranes, CHO-K1, Membrane; details: Not Active = under 50% inhibition at 10 µM
[2] = target: T1, 5-hydroxytryptamine receptor 1A (Rattus norvegicus, UniProt P19327); type: cell membranes, Membrane; details: cho-k1; note: in other assays of this panel Not Active means under 50% inhibition at 10 µM
T1 sequence (P19327 whole entry): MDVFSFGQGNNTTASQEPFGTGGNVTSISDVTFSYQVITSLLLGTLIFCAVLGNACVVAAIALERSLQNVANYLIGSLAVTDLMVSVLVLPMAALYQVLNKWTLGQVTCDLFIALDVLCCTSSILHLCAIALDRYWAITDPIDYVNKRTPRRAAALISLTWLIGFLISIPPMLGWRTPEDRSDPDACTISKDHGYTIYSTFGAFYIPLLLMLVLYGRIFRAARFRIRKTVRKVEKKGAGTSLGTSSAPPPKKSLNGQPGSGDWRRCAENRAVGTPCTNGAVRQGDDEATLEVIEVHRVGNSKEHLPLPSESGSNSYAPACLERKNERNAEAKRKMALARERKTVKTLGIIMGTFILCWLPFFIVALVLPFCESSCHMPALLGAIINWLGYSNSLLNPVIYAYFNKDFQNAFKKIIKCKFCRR

[3] = target: Tyrosine-protein kinase Lck (Homo sapiens, UniProt P06239); experiment: DRUGMATRIX: Protein Tyrosine Kinase, LCK enzyme inhibition (substrate: Poly(Glu:Tyr)); type: cell-based, Insect cells; details: Not Active = under 50% inhibition at 10 µM
Sequence of Tyrosine-protein kinase Lck (P06239 whole entry): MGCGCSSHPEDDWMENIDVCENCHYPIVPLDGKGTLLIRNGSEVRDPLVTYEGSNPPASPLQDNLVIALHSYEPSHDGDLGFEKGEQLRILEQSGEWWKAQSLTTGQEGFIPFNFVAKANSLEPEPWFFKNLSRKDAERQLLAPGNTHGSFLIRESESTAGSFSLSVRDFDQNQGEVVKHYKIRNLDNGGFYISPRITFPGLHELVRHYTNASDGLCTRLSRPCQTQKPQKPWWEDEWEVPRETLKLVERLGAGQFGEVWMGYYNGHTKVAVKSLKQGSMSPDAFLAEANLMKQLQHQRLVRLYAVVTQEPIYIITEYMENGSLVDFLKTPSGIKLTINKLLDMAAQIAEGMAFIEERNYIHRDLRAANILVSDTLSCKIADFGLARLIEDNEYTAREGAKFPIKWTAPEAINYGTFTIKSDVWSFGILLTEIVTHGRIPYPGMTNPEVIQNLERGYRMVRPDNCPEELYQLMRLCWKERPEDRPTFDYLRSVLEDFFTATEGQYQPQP

[4] = target: Protein phosphatase 3 catalytic subunit alpha (Homo sapiens, UniProt Q08209); set-up: species or system Escherichia coli;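 note: inhibition of calcineurin (PP2B) enzyme activity, measured with DiFMUP as the substrate; in other assays of this panel Not Active means under 50% inhibition at 10 µM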
[5] = target: Matrix metalloproteinase-9 (Homo sapiens, UniProt P14780); experiment: biochemical; type: cell-based;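 note: inhibition of isolated MMP-9 enzyme activity toward a synthetic peptide substrate, from the DrugMatrix protease screening panel; in other assays of this panel Not Active means under 50% inhibition at 10 µM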
Sequence of Matrix metalloproteinase-9 (P14780 whole entry): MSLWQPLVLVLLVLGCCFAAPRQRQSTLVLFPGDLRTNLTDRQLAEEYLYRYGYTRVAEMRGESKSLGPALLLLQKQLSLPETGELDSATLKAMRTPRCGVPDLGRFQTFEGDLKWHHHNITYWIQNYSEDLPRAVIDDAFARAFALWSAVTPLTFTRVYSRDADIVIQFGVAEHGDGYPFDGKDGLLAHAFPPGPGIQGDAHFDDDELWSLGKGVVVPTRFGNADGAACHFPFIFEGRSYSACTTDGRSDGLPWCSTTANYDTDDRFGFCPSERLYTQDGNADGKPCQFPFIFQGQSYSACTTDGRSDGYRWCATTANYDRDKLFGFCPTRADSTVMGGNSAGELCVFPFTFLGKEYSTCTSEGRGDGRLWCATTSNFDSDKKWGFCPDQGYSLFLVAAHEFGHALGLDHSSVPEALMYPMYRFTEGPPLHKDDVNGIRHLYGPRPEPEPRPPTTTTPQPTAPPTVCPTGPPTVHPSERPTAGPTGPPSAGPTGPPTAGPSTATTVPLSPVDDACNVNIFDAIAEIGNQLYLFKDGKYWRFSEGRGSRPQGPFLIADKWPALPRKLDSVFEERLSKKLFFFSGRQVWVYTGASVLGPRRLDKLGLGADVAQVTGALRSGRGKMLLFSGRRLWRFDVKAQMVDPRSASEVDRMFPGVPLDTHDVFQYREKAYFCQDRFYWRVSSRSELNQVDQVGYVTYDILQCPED

[6] = DRUGMATRIX: Potassium Channel [KATP] radioligand binding (ligand: [3H] Glyburide); type: cell membranes, Membrane; details: hit-t15; Not Active = under 50% inhibition at 10 µM
[7] = target: T2, Alpha-1B adrenergic receptor (Rattus norvegicus, UniProt P15823); experiment: DRUGMATRIX: Alpha-1B adrenergic receptor radioligand binding (ligand: prazosin); type: cell membranes, Wistar, Liver, Membrane; details: Not Active = under 50% inhibition at 10 µM
T2 sequence (P15823 whole entry): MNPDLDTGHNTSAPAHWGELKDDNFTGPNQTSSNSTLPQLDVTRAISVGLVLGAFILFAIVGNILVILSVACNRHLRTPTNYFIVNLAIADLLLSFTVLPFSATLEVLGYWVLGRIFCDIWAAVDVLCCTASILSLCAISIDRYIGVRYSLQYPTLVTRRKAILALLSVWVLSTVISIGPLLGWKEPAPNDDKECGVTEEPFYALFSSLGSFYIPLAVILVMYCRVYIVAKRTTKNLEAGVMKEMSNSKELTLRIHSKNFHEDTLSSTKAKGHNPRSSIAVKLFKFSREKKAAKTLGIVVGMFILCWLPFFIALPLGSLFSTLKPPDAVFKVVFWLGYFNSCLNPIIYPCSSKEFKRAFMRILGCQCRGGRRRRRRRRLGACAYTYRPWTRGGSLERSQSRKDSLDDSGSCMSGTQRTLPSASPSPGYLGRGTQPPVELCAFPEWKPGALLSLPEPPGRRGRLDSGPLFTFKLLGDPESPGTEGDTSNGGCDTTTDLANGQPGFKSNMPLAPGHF

Sequence of Sodium-dependent dopamine transporter (Q01959 whole entry): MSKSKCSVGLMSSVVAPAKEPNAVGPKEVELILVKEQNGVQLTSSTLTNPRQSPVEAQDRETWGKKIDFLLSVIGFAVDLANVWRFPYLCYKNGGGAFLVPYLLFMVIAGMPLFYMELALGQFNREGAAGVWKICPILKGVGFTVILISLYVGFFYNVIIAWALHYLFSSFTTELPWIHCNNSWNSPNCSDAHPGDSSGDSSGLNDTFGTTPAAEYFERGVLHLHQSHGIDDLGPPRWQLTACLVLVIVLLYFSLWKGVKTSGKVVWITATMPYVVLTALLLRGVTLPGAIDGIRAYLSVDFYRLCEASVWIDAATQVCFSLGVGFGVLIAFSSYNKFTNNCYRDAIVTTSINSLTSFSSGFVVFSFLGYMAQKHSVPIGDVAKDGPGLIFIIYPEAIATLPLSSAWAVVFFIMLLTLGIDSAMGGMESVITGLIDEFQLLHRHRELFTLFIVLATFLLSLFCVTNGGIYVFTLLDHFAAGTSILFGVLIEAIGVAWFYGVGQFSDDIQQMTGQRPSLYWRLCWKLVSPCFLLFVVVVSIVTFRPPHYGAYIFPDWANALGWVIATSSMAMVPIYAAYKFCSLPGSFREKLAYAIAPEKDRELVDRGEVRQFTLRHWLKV

| SMILES | IC50 ([1]; cho-k1) | IC50 [2] | IC50 ([3]; read-out: IC50) [µM] | IC50 [4] | IC50 [5] | IC50 [6] | Ki [6] | IC50 [7] | IC50 ([3]; insect cells) | IC50 ([1]; read-out: IC50) [µM] | Ki ([1]; read-out: Ki) [µM] |
| --- | --- | --- | --- | --- | --- | --- | --- | --- | --- | --- | --- |
| COc1cccc2c1C(=O)c1c(O)c3c(c(O)c1C2=O)C[C@@](O)(C(=O)CO)C[C@@H]3O[C@H]1C[C@H](N)[C@H](O)[C@H](C)O1 [DOXORUBICIN] | Not Active | Not Active | 31.9 | Not Active | Not Active | Not Active | Not Active | Not Active |  |  |  |
| COc1cccc2c1C(=O)c1c(O)c3c(c(O)c1C2=O)C[C@@](O)(C(=O)CO)C[C@@H]3O[C@H]1C[C@H](N)[C@@H](O)[C@H](C)O1 [EPIRUBICIN] | Not Active | Not Active |  | Not Active | Not Active | Not Active | Not Active | Not Active | Not Active |  |  |
| C[C@]12CC[C@@H]3c4ccc(OC(=O)c5ccccc5)cc4CC[C@H]3[C@@H]1CC[C@@H]2O [ESTRADIOL BENZOATE] | Not Active | Not Active |  | Not Active | Not Active | Not Active | Not Active | Not Active | Not Active |  |  |
| C[C@]12CC[C@@H]3c4ccc(O)cc4CC[C@H]3[C@@H]1CC[C@@H]2O [ESTRADIOL] |  | Not Active |  | Not Active | Not Active | Not Active | Not Active | Not Active | Not Active | 14.9 | 11.8 |
| CC[C@@H](CO)NCCN[C@@H](CC)CO [ETHAMBUTOL] | Not Active | Not Active |  | Not Active | Not Active | Not Active | Not Active | Not Active | Not Active |  |  |
| CC1(C)O[C@@H]2C[C@H]3[C@@H]4C[C@H](F)C5=CC(=O)C=C[C@]5(C)[C@H]4[C@@H](O)C[C@]3(C)[C@]2(C(=O)CO)O1 [FLUNISOLIDE] | Not Active | Not Active |  | Not Active | Not Active | Not Active | Not Active | Not Active | Not Active |  |  |
| CC1(C)O[C@@H]2C[C@H]3[C@@H]4C[C@H](F)C5=CC(=O)C=C[C@]5(C)[C@@]4(F)[C@@H](O)C[C@]3(C)[C@]2(C(=O)CO)O1 [FLUOCINOLONE ACETONIDE] | Not Active | Not Active |  | Not Active | Not Active | Not Active | Not Active | Not Active | Not Active |  |  |
| CC1(C)O[C@@H]2C[C@H]3[C@@H]4C[C@H](F)C5=CC(=O)CC[C@]5(C)[C@H]4[C@@H](O)C[C@]3(C)[C@]2(C(=O)CO)O1 [FLURANDRENOLIDE] | Not Active | Not Active |  | Not Active | Not Active | Not Active | Not Active | Not Active | Not Active |  |  |
| Cc1ccc(S(=O)(=O)NC(=O)NN2CC3CCCC3C2)cc1 (stereo not given) [GLICLAZIDE] | Not Active | Not Active |  | Not Active | Not Active | Not Active | Not Active | Not Active | Not Active |  |  |
| NC(=O)NO [HYDROXYUREA] | Not Active | Not Active |  | Not Active | Not Active | Not Active | Not Active | Not Active | Not Active |  |  |
| CC(C)Cc1ccc(C(C)C(=O)O)cc1 (stereo not given) [IBUPROFEN] | Not Active | Not Active |  | Not Active | Not Active | Not Active | Not Active | Not Active | Not Active |  |  |
| COc1ccc2c(c1)c(CC(=O)O)c(C)n2C(=O)c1ccc(Cl)cc1 [INDOMETHACIN] | Not Active | Not Active |  | Not Active | Not Active | Not Active | Not Active | Not Active | Not Active |  |  |
| CCc1c2c(nc3ccc(OC(=O)N4CCC(N5CCCCC5)CC4)cc13)-c1cc3c(c(=O)n1C2)COC(=O)[C@]3(O)CC [IRINOTECAN] | Not Active | Not Active |  | Not Active | Not Active | Not Active | Not Active | Not Active | Not Active |  |  |
